According to US7465783B2, “Plant peptide with antimicrobial activity” (Centre National de la Recherche Scientifique, priority 2002, dated 2008):
Ends that are not written are not given here.

Legend:
Assay type in all cases: cell-based
[1] = system: protoplasts of Arabidopsis thaliana
Text: This experiment has the aim of determining whether the effect of the peptide on the viability of the protoplasts of Arabidopsis thaliana corresponds to the cell necrosis or else to the implementation of the process of programmed cell death or apoptosis.
Apoptosis is distinguished from necrosis by a rigorous staging of death, punctuated by a set of genetically controlled events (Vaux and Korsmeyer (Cell, 1999, 96: 245-254); Pennell and Lamb (Plant Cell, 1997, 9: 1157-1168); Greenberg (P.N.A.S., 1996, 93: 12094-12097)). […] The TUNEL reaction allows the free 3′OH ends present in great quantity in the nuclei whose DNA is fragmented in the course of the process of apoptosis to be labeled.
The external application of the peptide of 25 amino acids to protoplasts of Arabidopsis thaliana at 5 μM for 2 hours allows an increase in the population of positive TUNEL protoplasts to be observed (FIG. 5B). 4 times more nuclei show DNA fragmentation characteristics with respect to the control.

[2] = system: Xanthomonas campestris pv campestris strain 8004; experiment: Antimicrobial (bacteriostatic) activity, peptide drops on TOPagar lawn
Method: (§1) Toxicity experiments on the peptide of 25 amino acids (SUP 25) purified in the preceding example on different bacteria were carried out. The different bacteria are cultured in 5 ml of LB medium or of medium appropriate to the strain, and then sedimented by centrifugation at 3000 g, and finally taken up in a volume of LB identical to the volume of bacteria. 50 μl of bacteria are inoculated into 9 ml of liquid TOPagar (LB+7 g/l of bactoagar) at 48° C. and rapidly poured into a square LB agar dish of 10 cm on each side. The drops of 10 μl of different concentrations of peptides are deposited on the solidified ToPagar. The dish is cultured for 16 hours. Cecropin A at 20 μM, an insect peptide recognized as having antibacterial activity, serves as a positive control.

[3] = system: Pseudomonas syringae pv tomato strain DC3000; experiment: as above
Method: as §1

[4] = system: Escherichia coli Strain DH5α; experiment: as above
Method: as §1

Substance | cytotoxic activity (fragmentation of nuclear DNA, TUNEL), in words [1] | Cecropin A 20 μM (positive control, antibacterial activity) [2] | Cecropin A 20 μM (positive control, antibacterial activity) [3] | Cecropin A 20 μM (positive control, antibacterial activity) [4]
MWWLVGLTPVELIHLCAFRERLSHL [Pep1S] | no longer has cytotoxic activity | – | – | –
MWWLVGLTPVELIHLSAFRERLSHL [Pep2S] | has a cytotoxic activity | – | – | –
Cecropin A [reference compound] | – | Positive | Positive | Positive
